According to paper PMC9025555, “Chiral Recognition R- and RS- of New Antifungal: Complexation/Solubilization/Dissolution Thermodynamics and Permeability Assay” (Pharmaceutics, 2022):
Values after ≈ are worked out from the molar mass of the structure shown.

Columns and labels:
[1] = Phase solubility study (shake-flask) in buffers with 2-HP-β-CD; conditions: for order of the solubility: compared with reported FCZ and L-173; for solubility at 3 days: thermodynamic from solid, solubility in pure buffer solution, pure buffer
Method: An excess amount of the substance was placed in the glass screw-capped vials with the solvent. The vials were stirred in an air thermostat for a certain period of time (a period of 3 days was estimated to be enough for reaching the equilibrium between the solid and the solvent). Then, the saturated solutions were kept in a thermostat in mild conditions no less than 12 h and thereafter centrifuged at a fixed temperature (Biofuge pico, Thermo Electron LED GmbH, Langenselbold, Germany) for 10 min at 12,000 rpm. […] The experimental results were reported as an average of at least three replicated experiments. Temperature uncertainty was ±0.1 K. The sensitivity of UV spectroscopic determinations was characterized by the values of the limit of detection (LOD)/limit of quantification (LOQ).

[2] = set-up: method as in doi:10.1016/j.molliq.2021.116535; conditions: cited from earlier work
in vitro = in vitro ADME; conditions: pH 7.4, pH 7.4; CD 0.01087 M; 310.15 K; read-out: Permeability Coefficient (Papp)
Method: Permeability coefficients of RS-186 and R-98 were measured through the PermeaPad barrier (PHABIOC, Germany, Espelkamp, www.permeapad.com, accessed on 20 May 2021) of an effective surface area of 0.785 cm^2 in a vertical type of Franz diffusion cell (PermeGear, Inc., Hellertown, PA, USA) with 7 mL volume. PermeaPad is a biomimetic membrane proposed by di Cagno and Bauer-Brandl for the fast screening of the permeability of the marketed drugs and drug-like compounds. In brief, the barrier was mounted between the donor and receptor chambers. The donor chamber was filled with a stock solution of the investigated substance in buffer solution at pH 2.0 or pH 7.4 and was stirred vigorously during the permeability experiment. The receptor compartment contained 1 mL of the respective fresh buffer. The system was thermostated at 310.15 ± 0.1 K. A probe of 0.5 mL was withdrawn every 30 min from the receptor chamber and replaced with an equal amount of the respective fresh buffer. The permeation process followed the reverse dialysis. The withdrawn samples were analyzed in 96-well UV black plate (Costar) via spectrophotometer (Spectramax 190; Molecular devices, Molecular Devices Corporation, California, CA, USA) at the appropriate wavelength. The permeation profiles were plotted as the amount of the permeated drug over the surface area ( dQ/A ) versus the time ( t ). The flux ( J ) was calculated as a slope of permeation profiles according to the equation:(6) J=dQ/A×dt
The apparent permeability coefficient ( Papp ) was calculated by normalizing the flux measured over the concentration of the drug in the donor compartment ( C0 ), as described by the equation:(7) Papp=J/Co
Each permeability experiment was repeated at least 3 times and the average value of Papp was determined.

[3] = cited from earlier work

OC(Cn1cncn1)(Cn1cncn1)c1ccc(F)cc1F [FCZ, fluconazole]
order of the solubility ([1]; pH 2.0): (FCZ) > (RS-186 ≥ R-98) > (L-173)
order of the solubility ([1]; pH 7.4): (FCZ) > (R-98 ≥ RS-186) >> (L-173)
Papp (PermeaPad) [2]: 19 ×10⁻⁶ cm/s

O=C(CN1C(=O)S/C(=C\c2ccc(Cl)cc2)C1=O)N1CCN(CC(O)(Cn2cncn2)c2ccc(F)cc2F)CC1 [L-173, (5Z)-5-[(4-chlorophenyl)methylidene]-3-(2-{4-[2-(2,4-difluorophenyl)-2-hydroxy-3-(1H-1,2,4-triazol-1-yl)propyl]piperazin-1-yl}-2-oxoethyl)-1,3-thiazolidine-2,4-dione, reference compound]
order of the solubility ([1]; pH 2.0): (FCZ) > (RS-186 ≥ R-98) > (L-173)
order of the solubility ([1]; pH 7.4): (FCZ) > (R-98 ≥ RS-186) >> (L-173)

O=C1S/C(=C\c2ccc(Cl)cc2)C(=O)N1CC(O)CN1CCN(CC(O)(Cn2cncn2)c2ccc(F)cc2F)CC1 (stereo not shown) [R-98, (Z)-5-(4-chlorobenzylidene)-3-(3-(4-(2-(2,4-difluorophenyl)-2-hydroxy-3-(1H-1,2,4-triazol-1-yl)propyl)piperazin-1-yl)-2-hydroxypropyl)thiazolidine-2,4-dione]
Papp (in vitro): 1.19 ×10⁻⁶ cm/s
solubility at 3 days ([1]; pH 2, aqueous buffer, pH 2.0): 620 µM (≈ 384 µg/mL)
solubility at 3 days ([1]; pH 7.4, aqueous buffer, pH 7.4): 18 µM (≈ 11.1 µg/mL)

CC(C)Cc1ccc(C(C)C(=O)O)cc1 (stereo not shown) [ibuprofen]
greater solubility of enantiomer against the racemate ([3]; pH 1.5): twice

CC(C)NCC(O)COc1cccc2ccccc12.Cl (stereo not shown) [propranolol HCl]
greater solubility of racemic compound as compared to enantiomer [3]: 3.7 fold
